Experimental data from ChEMBL document CHEMBL1201862, “PubChem BioAssay data set” (2004).
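Where inhibition never reached the appropriate level, the endpoint shown equals the highest concentration tested. Otherwise, values were interpolated linearly from a five-concentration, 48-hour dose response in 96-well plates. GI50 = concentration required for 50% inhibition of growth.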 Activity calls are given as the source filed them. Cut-off read from the data, not from the text of the source: active = GI50 up to about 1.1 µM and inactive = higher.

What was measured:
Experiment in all cases: NCI anticancer screen, dose series, 48 h
ACHN = system: ACHN
HL-60 = system: HL-60
HOP-92 = system: HOP-92
Hs-578T = system: Hs-578T
LOX IMVI = system: LOX IMVI
MCF7 = system: MCF7
NCI-H226 = system: NCI-H226
NCI/ADR-RES = system: NCI/ADR-RES
OVCAR-8 = system: OVCAR-8
PC-3 = system: PC-3
RPMI-8226 = system: RPMI-8226
RXF 393 = system: RXF 393
SF-539 = system: SF-539
SK-MEL-5 = system: SK-MEL-5
SK-OV-3 = system: SK-OV-3
SNB-75 = system: SNB-75
SR = system: SR
T47D = system: T47D
TK-10 = system: TK-10
K562 = system: K562

SMILES	GI50 (ACHN)	GI50 (HL-60)	GI50 (HOP-92)	GI50 (Hs-578T)	GI50 (LOX IMVI)	GI50 (MCF7)	GI50 (NCI-H226)	GI50 (NCI/ADR-RES)	GI50 (OVCAR-8)	GI50 (PC-3)	GI50 (RPMI-8226)	GI50 (RXF 393)	GI50 (SF-539)	GI50 (SK-MEL-5)	GI50 (SK-OV-3)	GI50 (SNB-75)	GI50 (SR)	GI50 (T47D)	GI50 (TK-10)	GI50 (K562)
CC1(CF)SCc2nc3ccccc3n21 (stereo not given)	> 100 µM (inactive)	> 100 µM (inactive)	> 100 µM (inactive)	> 100 µM (inactive)	> 100 µM (inactive)	> 100 µM (inactive)	> 100 µM (inactive)	> 100 µM (inactive)	> 100 µM (inactive)	> 100 µM (inactive)	> 100 µM (inactive)	> 100 µM (inactive)	> 100 µM (inactive)	> 100 µM (inactive)	> 100 µM (inactive)	> 100 µM (inactive)	> 100 µM (inactive)	> 100 µM (inactive)	> 100 µM (inactive)	
C1=N/CCNCCNCC/N=C/c2ccccc2OCc2cccc(n2)COc2ccccc2/1	28.6 µM (inactive)	28 µM (inactive)	71.4 µM (inactive)	55.3 µM (inactive)		21.2 µM (inactive)	66.8 µM (inactive)	23.1 µM (inactive)	28.6 µM (inactive)	34 µM (inactive)	28.4 µM (inactive)	30.3 µM (inactive)	26.1 µM (inactive)	39.1 µM (inactive)	> 100 µM (inactive)	67.9 µM (inactive)	19.5 µM (inactive)	57.4 µM (inactive)		24.7 µM (inactive)
CC(C)(CO)CNc1nc(N)nc(Cl)c1C=O	48.8 µM (inactive)	3.9 µM (inactive)	26.2 µM (inactive)	22.9 µM (inactive)	16.4 µM (inactive)	50.4 µM (inactive)	50.8 µM (inactive)	42.2 µM (inactive)	22.5 µM (inactive)	16.8 µM (inactive)	60.5 µM (inactive)	17.6 µM (inactive)	54.2 µM (inactive)	30.7 µM (inactive)		35.6 µM (inactive)	17.5 µM (inactive)	42.9 µM (inactive)	46.9 µM (inactive)	5.19 µM (inactive)
O=C1c2cccc3cccc(c23)C2NCCCN12 (stereo not given)	68.7 µM (inactive)	> 100 µM (inactive)	> 100 µM (inactive)	> 100 µM (inactive)	> 100 µM (inactive)	95.3 µM (inactive)	52.8 µM (inactive)	99.1 µM (inactive)	> 100 µM (inactive)	> 100 µM (inactive)		42.4 µM (inactive)		78.2 µM (inactive)	> 100 µM (inactive)	< 0.01 µM (active)	71 µM (inactive)	> 100 µM (inactive)	> 100 µM (inactive)	70.3 µM (inactive)
CC(C#N)(NO)C(C)(C#N)NO (stereo not given)		> 100 µM (inactive)		> 100 µM (inactive)	> 100 µM (inactive)	> 100 µM (inactive)	97.9 µM (inactive)	> 100 µM (inactive)	> 100 µM (inactive)	> 100 µM (inactive)	> 100 µM (inactive)	> 100 µM (inactive)	> 100 µM (inactive)	> 100 µM (inactive)	> 100 µM (inactive)	> 100 µM (inactive)	> 100 µM (inactive)	> 100 µM (inactive)	> 100 µM (inactive)	> 100 µM (inactive)
COC1=C2CC(C)CC(OC)[C@@H](OC(=O)CCN)[C@H](C)/C=C(\C)C(OC(N)=O)C(OC)/C=C\C=C(/C)C(=O)NC(=CC1=O)C2=O (stereo not given in full)	0.773 µM (active)	0.256 µM (active)	0.697 µM (active)	3.73 µM (inactive)	0.897 µM (active)	0.528 µM (active)	20.4 µM (inactive)	16.4 µM (inactive)	1.9 µM (inactive)	4.06 µM (inactive)	0.871 µM (active)	1.56 µM (inactive)	4.4 µM (inactive)	2.92 µM (inactive)	12.8 µM (inactive)	20.8 µM (inactive)	1.26 µM (inactive)	0.486 µM (active)	3.54 µM (inactive)	0.269 µM (active)
Oc1ccc(-c2nc3ccccc3s2)cc1	45.8 µM (inactive)	30.3 µM (inactive)	35.9 µM (inactive)	37.7 µM (inactive)	21.4 µM (inactive)	33.6 µM (inactive)	43.3 µM (inactive)	31.8 µM (inactive)	30.6 µM (inactive)	32.1 µM (inactive)	27.1 µM (inactive)	24 µM (inactive)	47.8 µM (inactive)		32.1 µM (inactive)	37.4 µM (inactive)	32.7 µM (inactive)	21.5 µM (inactive)		29 µM (inactive)
